# Laboratory results taken from US4859611A (priority 1986, dated 1989).
# What was measured:
# [1] = tested on: IgM antibody affinity matrix; assay type: binding, mouse
# [2] = tested on: many animal species; settings: in vivo; cited from earlier work
compound,measurement,setting,value
"COc1cc2c(c3oc(=O)c4c(c13)CCC4=O)[C@@H]1C=CO[C@@H]1O2 [AFB1, aflatoxin B1]",capacity of affinity matrix to bind AFB1,[1],1.0 to 1.3 µg
same,"toxic, mutagenic and carcinogenic effect",[2],"toxic, mutagenic and carcinogenic"
